IC50 data for 8 molecules are collected here from patent US7517902B2, “Substituted indazoles, compositions containing the same, and the preparation and use thereof” (Aventis Pharma S.A., priority 2004, dated 2009).

Holding throughout (assay type): biochemical
The target of one assay is T1, human KDR enzyme (Homo sapiens, UniProt P35968).
T1 construct: The cytoplasmic domain of the human KDR enzyme was cloned in the form of a GST fusion; GST; made in house; host or cells: SF21 insect cells (baculovirus, pFastBac)
In words: KDR substrate phosphorylation assay (scintillation, 96-well plate). The method, then:
The inhibitory effect of the compounds is determined in an assay of substrate phosphorylation by the KDR enzyme in vitro using a scintillation technique (96-well plate, NEN).
The cytoplasmic domain of the human KDR enzyme was cloned in the form of a GST fusion into the baculovirus expression vector pFastBac. The protein was expressed in SF21 cells and purified to approximately 60% homogeneity.
The KDR kinase activity is measured in 20 mM MOPS, 10 mM MgCl2, 10 mM MnCl2, 1 mM DTT, 2.5 mM EGTA, 10 mM β-glycerophosphate, pH=7.2, in the presence of 10 mM MgCl2, 100 μM Na3VO4, 1 mM NaF. 10 μl of the compound are added to 70 μl of kinase buffer, containing 100 ng of KDR enzyme at 4° C. The reaction is triggered by adding 20 μl of solution containing 2 μg of substrate (SH2-SH3 fragment of PLCγ expressed in the form of a GST fusion protein), 2 μCi γ^33P[ATP] and 2 μM cold ATP. After 1 hour of incubation at 37° C., the reaction is stopped by adding 1 volume (100 μl) of 200 mM EDTA. The incubation buffer is withdrawn and the wells are washed three times with 300 μl of PBS. The radioactivity is measured in each well using a Top Count NXT radioactivity counter (Packard).
The background noise is determined by measuring the radioactivity in four different wells containing the radioactive ATP and the substrate alone.
A control for total activity is measured in four different wells containing all of the reagents (γ^33P-[ATP], KDR and PLCγ substrate), but in the absence of compound.
The inhibition of KDR activity with the compound of the invention is expressed in percentage inhibition of the control activity determined in the absence of compound.
The compound SU5614 (Calbiochem) (1 μM) is included in each plate as an inhibition control.

A further assay addresses T2, human Tie2 (Homo sapiens, UniProt Q02763).
T2 construct: amino acids of the intracellular domain 776-1124; made in house
The experiment in a line: Tie2 assay of PLC phosphorylation (FlashPlate). The settings on record: read-out: IC 50 TIE2. The method, then:
The coding sequence of human Tie2, corresponding to the amino acids of the intracellular domain 776-1124, was generated by PCR, using the cDNA isolated from human placenta as a model. This sequence was introduced into a baculovirus expression vector pFastBacGT in the form of a GST fusion protein.
The inhibitory effect of the molecules is determined in an assay of PLC phosphorylation by Tie2 in the presence of GST-Tie2 purified to approximately 80% homogeneity. The substrate is composed of the SH2-SH3 fragments of PLC expressed in the form of a GST fusion protein.
The kinase activity of Tie2 is measured in a 20 mM MOPS buffer, pH 7.2, containing 10 mM MgCl2, 10 mM MnCl2, 1 mM DTT, 10 mM of glycerol-phosphate. In a 96-well FlashPlate plate, kept on ice, a reaction mixture is deposited which is composed of 70 μl of kinase buffer containing 100 ng of GST-Tie2 enzyme per well. Subsequently 10 μl of the test molecule diluted to a concentration of 10% maximum in DMvSO are added. For a given concentration, each measurement is carried out in quadruplicate. The reaction is initiated by adding 20 μl of solution containing 2 μg of GST-PLC, 2 μM of cold ATP and 1 μCi of ^33P[ATP]. After 1 hour of incubation at 37° C., the reaction is terminated by adding 1 volume (100 μl) of 200 mM EDTA. Following removal of the incubation buffer, the wells are washed three times with 300 μl of PBS. The radioactivity is measured on a Wallac MicroBeta 1450.
The inhibition of Tie2 activity is calculated and expressed as a percentage inhibition relative to the control activity determined in the absence of compound.

Another assay addresses T3, Aurora2 (Homo sapiens, UniProt O14965).
T3 construct: Aurora 2: whole recombinant protein comprising an N-terminal histidine tail; His tag (histidine tail) (N); made in house; host or cells: E. coli
T3 sequence (O14965 1-403): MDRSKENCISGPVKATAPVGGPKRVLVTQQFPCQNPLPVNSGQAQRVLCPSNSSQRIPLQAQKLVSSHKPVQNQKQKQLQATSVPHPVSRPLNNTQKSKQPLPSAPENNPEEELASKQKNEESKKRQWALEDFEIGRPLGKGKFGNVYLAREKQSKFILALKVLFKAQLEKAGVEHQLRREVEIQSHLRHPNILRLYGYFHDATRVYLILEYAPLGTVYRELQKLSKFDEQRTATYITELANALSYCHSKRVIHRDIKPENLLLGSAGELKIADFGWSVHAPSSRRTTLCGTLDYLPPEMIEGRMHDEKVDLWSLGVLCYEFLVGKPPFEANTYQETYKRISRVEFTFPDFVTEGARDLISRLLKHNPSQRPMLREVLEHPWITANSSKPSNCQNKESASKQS
The experiment in a line: Aurora2 enzyme assay, NuMA substrate phosphorylation (Flashplate). The settings on record: read-out: IC 50 Aurora2. The method, then: The inhibitory effect of compounds with respect to the kinases Aurora1 and Aurora2 is determined by an enzyme assay employing radioactivity detection.
The kinase activity of Aurora 1 and Aurora 2 is evaluated by the phosphorylation of the substrate Numa-histidine in the presence of radiolabeled ATP ([^33P]ATP), using 96-well Flashplate plates in which nickel chelate is fixed to the surface of the microplate. The amount of ^33P phosphate incorporated in the NuMA substrate is proportional to the activity of the enzyme Aurora1 or Aurora2.
The proteins are produced in the protein production laboratory of the SanofiAventis group.
Aurora 2: whole recombinant protein comprising an N-terminal histidine tail, expressed in E. coli and purified to more than 82%.
NuMA (nuclear protein that associates with the mitotic apparatus) fragment of 424 amino acids, expressed in E. coli, whose N-terminal end has been labeled with histidine and used as a substrate for the two Aurora enzymes.
The microplates used are 96-well Flash-Plate plates with nickel chelate (Perkin Elmer, model SMP107).
The products for evaluation are incubated in a reaction volume of 100 μL per well in the presence of 10 nM of Aurora 1 or Aurora 2, 500 nM of NuMA substrate in a buffer composed of 50 mM of Tris/HCl (pH 7.5), 50 mM NaCl, 5 mM MgCl2 (Aurora-B) or 10 mM MgCl2 (Aurora-A) and 1 mM of DTT, at 37° C.
In each well, 80 μL of the enzyme/substrate incubation buffer are distributed, followed by 10 μL of the product to be evaluated, in variable concentrations. The reaction is initiated by adding 1 μM of final ATP containing 0.2 μCi of [^33P]ATP (10 μL). After 30 minutes of incubation, the reaction is terminated by simply removing the reaction buffer and each well is washed twice with 300 μl of the Tris/HCl buffer. The radioactivity is then measured in each well by means of a scintillation apparatus, Packard, Top count model.
The control enzyme activity of Aurora is expressed by the number of counts per minute obtained within 30 minutes, after deduction of the background noise (reaction mixture not containing the enzyme). The evaluation of the various test products is expressed in percentage inhibition of the Aurora activity relative to the control.

T1 sequence (P35968 786-1356 limits assumed): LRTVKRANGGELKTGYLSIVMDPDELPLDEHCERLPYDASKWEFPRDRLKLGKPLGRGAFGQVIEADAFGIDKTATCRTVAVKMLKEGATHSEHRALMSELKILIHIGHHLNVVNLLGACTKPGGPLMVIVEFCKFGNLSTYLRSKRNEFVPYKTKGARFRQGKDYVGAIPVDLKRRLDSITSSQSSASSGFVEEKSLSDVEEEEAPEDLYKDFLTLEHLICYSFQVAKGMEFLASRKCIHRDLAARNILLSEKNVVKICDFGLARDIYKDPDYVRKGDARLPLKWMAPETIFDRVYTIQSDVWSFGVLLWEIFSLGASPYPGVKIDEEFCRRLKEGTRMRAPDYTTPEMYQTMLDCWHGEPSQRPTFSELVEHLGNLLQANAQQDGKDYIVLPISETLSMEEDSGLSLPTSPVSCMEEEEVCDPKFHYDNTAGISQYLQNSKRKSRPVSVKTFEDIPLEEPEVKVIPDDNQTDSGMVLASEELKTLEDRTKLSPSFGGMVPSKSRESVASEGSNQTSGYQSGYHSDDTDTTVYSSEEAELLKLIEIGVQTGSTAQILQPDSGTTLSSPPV
T2 sequence (Q02763 776-1124): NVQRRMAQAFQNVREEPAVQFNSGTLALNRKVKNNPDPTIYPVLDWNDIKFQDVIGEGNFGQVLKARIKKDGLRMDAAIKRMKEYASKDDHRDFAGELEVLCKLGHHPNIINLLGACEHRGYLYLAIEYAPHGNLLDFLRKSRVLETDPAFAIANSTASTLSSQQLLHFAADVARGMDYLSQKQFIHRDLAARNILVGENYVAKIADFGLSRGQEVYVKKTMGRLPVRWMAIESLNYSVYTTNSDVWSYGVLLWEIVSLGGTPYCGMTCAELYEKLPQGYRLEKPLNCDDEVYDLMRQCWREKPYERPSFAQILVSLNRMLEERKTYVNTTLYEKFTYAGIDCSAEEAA

Turning to `Nc1n[nH]c2c(F)c(-c3ccc(NC(=O)Nc4cccc(C(F)(F)F)c4)cc3)ccc12` [Example 19, 1-[4-(3-Amino-7-fluoro-1H-indazol-6-yl)phenyl]-3-(3-trifluoromethylphenyl)urea], the IC50 came to 0.329 µM on human KDR enzyme, 0.231 µM at human Tie2 and 0.092 µM on Aurora2.
The matching figures for `CC(C)(C)c1cc(NC(=O)Nc2ccc(-c3ccc4c(N)n[nH]c4c3F)cc2)no1` [Example 21, 1-[4-(3-Amino-7-fluoro-1H-indazol-6-yl)phenyl]-3-(5-tert-butylisoxazol-3-yl)urea]: 0.085 µM, 0.174 µM and 0.068 µM.
The corresponding values for `Nc1n[nH]c2c(F)c(-c3ccc(NC(=O)Nc4ccccc4F)cc3)ccc12` [Example 22, 1-[4-(3-Amino-7-fluoro-1H-indazol-6-yl)phenyl]-3-(2-fluorophenyl)urea] are 1.94 µM, 5.85 µM and 0.143 µM.
The matching figures for `Cc1cc(-c2ccc3c(NC(=O)c4ccsc4)n[nH]c3c2F)ccc1NC(=O)Nc1cc(C(F)(F)F)ccc1F` [Example 23, 1-(4-{7-Fluoro-3-[(thiophen-3-yl)carbonylamino]-1H-indazol-6-yl}-2-methylphenyl)-3-(2-fluoro-5-trifluoromethylphenyl)urea]: 0.015 µM, 0.016 µM and 0.296 µM.
For the molecule `Cc1ccc(-n2nc(C(C)(C)C)cc2NC(=O)Nc2ccc(-c3ccc4c(N)n[nH]c4c3F)cc2)cc1` [Example 25, 1-[4-(3-Amino-7-fluoro-1H-indazol-6-yl)phenyl]-3-(5-tert-butyl-2-p-tolyl-2H-pyrazol-3-yl)urea], the values for the IC50 at human KDR enzyme, at human Tie2 and on Aurora2 were 0.011 µM, 0.017 µM and 0.094 µM, respectively.
The corresponding values for `O=C(Nc1ccc(-c2ccc3c(NC(=O)C4CCCN4)n[nH]c3c2F)cc1)Nc1cc(C(F)(F)F)ccc1F` [Example 26, 1-(4-{7-Fluoro-3-[(L-pyrrolidin-2-yl)carbonylamino]-1H-indazol-6-yl}phenyl)-3-(2-fluoro-5-trifluoromethylphenyl)urea] are 1.05 µM, 0.626 µM and 3.38 µM.
As to `CC(=O)Nc1n[nH]c2c(F)c(-c3ccc(NC(=O)Nc4cc(C(F)(F)F)ccc4F)cc3)ccc12` [Example 27, 1-(4-{7-Fluoro-3-acetylamino-1H-indazol-6-yl}phenyl)-3-(2-fluoro-5-trifluoromethylphenyl)urea], the IC50 worked out at 0.079 µM on human KDR enzyme, 0.143 µM on human Tie2 and 0.335 µM at Aurora2.
The matching figures for `O=CNc1n[nH]c2c(F)c(-c3ccc(NC(=O)Nc4cc(C(F)(F)F)ccc4F)cc3)ccc12` [Example 28, 1-(4-(7-Fluoro-3-formylamino-1H-indazol-6-yl}phenyl)-3-(2-fluoro-5-tri-fluoromethylphenyl)urea]: 0.164 µM, 0.176 µM and 0.52 µM.
